Data as given in patent publication US8318935B2, “Organic compounds 75074” (Novartis AG, priority 2007, dated 2012).
Structures can show the parent of a compound that is named as a salt.

biological target: T1, epithelial sodium channel (ENaC) (Homo sapiens, UniProt P37088+P51168+P51170); experiment: Short circuit current (ISC) measurements in human bronchial epithelial cells: inhibition of the amiloride-sensitive ISC (ENaC blockade); type: cell-based; details: Human Bronchial Epithelial cells (HBECs) at air-liquid interface, Ussing chamber, compound added to apical chamber
T1 construct: host or cells: primary Human Bronchial Epithelial cells (HBECs), air-liquid interface culture
T1 sequence (P37088 1-669): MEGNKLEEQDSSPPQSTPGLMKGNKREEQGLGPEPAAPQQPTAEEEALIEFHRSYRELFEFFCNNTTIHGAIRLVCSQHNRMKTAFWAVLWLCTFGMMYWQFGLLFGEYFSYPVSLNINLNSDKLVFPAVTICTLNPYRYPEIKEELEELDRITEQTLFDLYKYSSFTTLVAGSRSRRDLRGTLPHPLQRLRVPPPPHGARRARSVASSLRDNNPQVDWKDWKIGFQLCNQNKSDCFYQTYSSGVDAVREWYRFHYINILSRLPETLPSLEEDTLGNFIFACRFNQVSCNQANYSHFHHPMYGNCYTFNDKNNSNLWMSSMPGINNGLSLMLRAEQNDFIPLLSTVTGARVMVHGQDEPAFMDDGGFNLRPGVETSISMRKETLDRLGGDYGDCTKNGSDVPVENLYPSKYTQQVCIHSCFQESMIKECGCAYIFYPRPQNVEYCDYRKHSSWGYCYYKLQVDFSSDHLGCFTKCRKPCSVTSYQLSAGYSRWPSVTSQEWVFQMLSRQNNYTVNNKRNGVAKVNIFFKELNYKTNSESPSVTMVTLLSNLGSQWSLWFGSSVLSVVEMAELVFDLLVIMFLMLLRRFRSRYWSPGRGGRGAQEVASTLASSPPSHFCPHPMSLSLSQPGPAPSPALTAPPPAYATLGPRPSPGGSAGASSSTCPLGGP
T1 sequence (P51168 1-640): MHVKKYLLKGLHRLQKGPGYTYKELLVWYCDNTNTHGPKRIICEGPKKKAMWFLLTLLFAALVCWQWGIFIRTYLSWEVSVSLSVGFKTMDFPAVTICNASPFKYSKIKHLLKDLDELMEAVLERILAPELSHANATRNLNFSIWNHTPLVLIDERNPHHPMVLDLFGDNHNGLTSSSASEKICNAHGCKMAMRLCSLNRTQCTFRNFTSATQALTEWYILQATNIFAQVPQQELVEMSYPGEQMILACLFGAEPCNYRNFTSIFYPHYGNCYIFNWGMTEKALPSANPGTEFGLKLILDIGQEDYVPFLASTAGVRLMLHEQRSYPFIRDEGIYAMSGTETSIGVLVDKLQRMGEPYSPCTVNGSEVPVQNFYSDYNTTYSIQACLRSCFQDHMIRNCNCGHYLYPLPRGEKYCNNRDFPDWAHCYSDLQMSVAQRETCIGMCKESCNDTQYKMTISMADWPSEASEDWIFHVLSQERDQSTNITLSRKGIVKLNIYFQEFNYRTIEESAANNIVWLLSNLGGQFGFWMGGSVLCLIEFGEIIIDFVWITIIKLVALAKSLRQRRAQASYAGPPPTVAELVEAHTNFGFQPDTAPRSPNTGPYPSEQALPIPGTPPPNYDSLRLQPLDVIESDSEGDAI
T1 sequence (P51170 1-649): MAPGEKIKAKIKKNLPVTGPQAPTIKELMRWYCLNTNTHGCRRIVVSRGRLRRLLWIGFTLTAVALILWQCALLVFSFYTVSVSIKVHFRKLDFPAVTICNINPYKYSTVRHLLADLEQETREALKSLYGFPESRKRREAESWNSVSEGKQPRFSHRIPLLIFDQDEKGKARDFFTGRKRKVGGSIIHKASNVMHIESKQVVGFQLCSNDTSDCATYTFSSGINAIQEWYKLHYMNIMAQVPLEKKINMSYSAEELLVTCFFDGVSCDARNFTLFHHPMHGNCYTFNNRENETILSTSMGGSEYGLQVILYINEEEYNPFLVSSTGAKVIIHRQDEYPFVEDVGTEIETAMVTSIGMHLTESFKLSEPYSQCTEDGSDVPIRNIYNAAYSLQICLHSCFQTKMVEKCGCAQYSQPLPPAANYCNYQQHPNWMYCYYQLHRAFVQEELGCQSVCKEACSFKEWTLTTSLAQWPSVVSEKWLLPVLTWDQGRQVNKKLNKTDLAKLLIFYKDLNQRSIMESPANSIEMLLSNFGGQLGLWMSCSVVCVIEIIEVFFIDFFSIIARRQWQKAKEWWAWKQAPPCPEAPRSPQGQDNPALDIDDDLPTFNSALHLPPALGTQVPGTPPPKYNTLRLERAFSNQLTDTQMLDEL
Procedure: Human Bronchial Epithelial cells (HBECs) (Cambrex) were cultured under air-liquid interface conditions to provide a well differentiated mucociliary phenotype.
HBECs were cultured using a modification of the method described by Gray and colleagues (Gray et al., 1996). Cells were seeded in plastic T-162 flasks and were grown in bronchial epithelial cell growth medium (BEGM; Cambrex) supplemented with bovine pituitary extract (52 μg/ml), hydrocortisone (0.5 μg/ml), human recombinant epidermal growth factor (0.5 ng/ml), epinephrine (0.5 μg/ml), transferrin (10 μg/ml), insulin (5 μg/ml), retinoic acid (0.1 μg/ml), triiodothyronine ([…]), gentamycin (50 μg/ml) and amphotericin B (50 ng/ml). Medium was changed every 48 hours until cells were 90% confluent. Cells were then passaged and seeded (8.25×10^4 cells/insert) on polycarbonate Snapwell inserts (Costar) in differentiation media containing 50% DMEM in BEGM with the same supplements as above but without triiodothyronine and a final retinoic acid concentration of 50 nM (all-trans retinoic acid). Cells were maintained submerged for the first 7 days in culture, after which time they were exposed to an apical air interface for the remainder of the culture period. At this time, media was changed to DMEM:F12 media containing 2% v/v Ultroser G for the remainder of culture. Amphotericin B was removed from all media 3 feeds prior to use in the Ussing Chambers. Cells were used between days 7 and 21 after establishment of the apical-air interface. At all stages of culture, cells were maintained at 37° C. in 5% CO2 in an air incubator.
Short Circuit Current (ISC) Measurements
Snapwell inserts were mounted in Vertical Diffusion Chambers (Costar) and were bathed with continuously gassed Ringer solution (5% CO2 in O2; pH 7.4) maintained at 37° C. containing (in mM): 120 NaCl, 25 NaHCO3, 3.3 KH2PO4, 0.8 K2HPO4, 1.2 CaCl2, 1.2 MgCl2, and 10 glucose. The solution osmolarity was between 280 and 300 mOsmol/kg H2O for all physiological salt solutions used. Cells were voltage clamped to 0 mV (model EVC4000; WPI). RT was measured by applying a 1- or 2-mV pulse at 30-s intervals and calculating RT by Ohm's law. Data were recorded using a PowerLab workstation (ADInstruments).
Test compounds were prepared as a 10 mM stock solution in DMSO (95%). Serial 3-fold dilutions were freshly prepared in an appropriate vehicle (distilled H2O or Ringers solution). The initial concentration was added to the apical chamber as a 1000× concentrate in 5 μl, resulting in a final 1× concentration the 5 ml volume of the Ussing chamber. Subsequent additions of compound were added in a 3.3 μl volume of the 1000× serially diluted stock solution. At the completion of the concentration-response experiment, amiloride (10 μM) was added into the apical chamber to enable the total amiloride-sensitive current to be measured. An amiloride control IC50 was established at the start of each experiment.
Results are expressed as the mean % inhibition of the amiloride-sensitive ISC. Concentration-response curves were plotted and IC50 values generated using GraphPad Prism 3.02. Cell inserts were typically run in duplicate and the IC50 calculated on the mean % inhibition data.

Structure (SMILES) | IC50 [nM]
N=C(NC(=O)c1nc(Cl)c(N)nc1N)NC1CCN(C(=O)c2ccc(C(=O)N3CCC(NC(=N)NC(=O)c4nc(Cl)c(N)nc4N)CC3)cc2)CC1 [Example 4, N,N′-(1,1′-(1,4-phenylene)bis(oxomethylene)bis(piperidine-4,1-diyl))bis(azanediyl)bis(iminomethylene)bis(3,5-diamino-6-chloropyrazine-2-carboxamide)hydrochloride] | 10
N=C(NC(=O)c1nc(Cl)c(N)nc1N)NC1CCN(c2ncnc(N3CCC(NC(=N)NC(=O)c4nc(Cl)c(N)nc4N)CC3)n2)CC1 [Example 7, N,N′-(1,1′-(1,3,5-triazine-2,4-diyl)bis(piperidine-4,1-diyl))bis(azanediyl)bis(iminomethylene)bis(3,5-diamino-6-chloropyrazine-2-carboxamide)hydrochloride] | 6
N=C(NC(=O)c1nc(Cl)c(N)nc1N)NC1CCN(C(=O)Nc2ccc(NC(=O)N3CCC(NC(=N)NC(=O)c4nc(Cl)c(N)nc4N)CC3)cc2)CC1 [Example 2, N,N′-(1,1′-(1,4-phenylenebis(azanediyl))bis(oxomethylene)bis(piperidine-4,1-diyl))bis(azanediyl)bis(iminomethylene)bis(3,5-diamino-6-chloropyrazine-2-carboxamide)hydrobromide] | 1.5
N/C(=N\C(=O)c1nc(Cl)c(N)nc1N)NC1CCN(C(=O)NCCCCNC(=O)N2CCC(N/C(N)=N/C(=O)c3nc(Cl)c(N)nc3N)CC2)CC1 [Example 23, N,N′-(1,1′-(Butane-1,4-diylbis(azanediyl))bis(oxomethylene)bis(piperidine-4,1-diyl))bis(azanediyl)bis(aminomethan-1-yl-1-ylidene)bis(3,5-diamino-6-chloropyrazine-2-carboxamide) hydrobromide] | 1.6
CCCCN(CCCC)CCCNc1nc(N2CCC(NC(=N)NC(=O)c3nc(Cl)c(N)nc3N)CC2)nc(N2CCC(NC(=N)NC(=O)c3nc(Cl)c(N)nc3N)CC2)n1 [Example 13, N,N′-(1,1′-(6-(3-(dibutylamino)propylamino)-1,3,5-triazine-2,4-diyl)bis(piperidine-4,1-diyl))bis(azanediyl)bis(iminomethylene)bis(3,5-diamino-6-chloropyrazine-2-carboxamide) trifluoroacetate] | 1
